The values that follow come from ChEMBL document CHEMBL5678810.

Structures are written as SMILES. Activity calls are given as the source filed them. The rule behind the calls is not given here.

Experiment [1] addresses Casein kinase II subunit alpha (Homo sapiens) (UniProt P68400). Kind of experiment: Inhibition of T7 bacteriophage fused human CSNK2A1 at 10 uM by KINOMEscan analysis relative to control.
In experiment [2] the target is Mitogen-activated protein kinase 14 (Homo sapiens) (UniProt Q16539). Kind of experiment: Inhibition of T7 bacteriophage fused human p38-alpha at 10 uM by KINOMEscan analysis relative to control; values are per cent of control.
For experiment [3], the target named is Myosin-IIIa (Homo sapiens) (UniProt Q8NEV4). As to the kind of experiment: Inhibition of T7 bacteriophage fused human MYO3A at 10 uM by KINOMEscan analysis relative to control; values are per cent of control.
The target in experiment [4] is Serine/threonine-protein kinase MRCK beta (Homo sapiens) (UniProt Q9Y5S2). As to the kind of experiment: Inhibition of T7 bacteriophage fused human MRCKB at 10 uM by KINOMEscan analysis relative to control.
Chain of Serine/threonine-protein kinase MRCK beta (Homo sapiens) (Q9Y5S2 whole entry, the tested form may be a part): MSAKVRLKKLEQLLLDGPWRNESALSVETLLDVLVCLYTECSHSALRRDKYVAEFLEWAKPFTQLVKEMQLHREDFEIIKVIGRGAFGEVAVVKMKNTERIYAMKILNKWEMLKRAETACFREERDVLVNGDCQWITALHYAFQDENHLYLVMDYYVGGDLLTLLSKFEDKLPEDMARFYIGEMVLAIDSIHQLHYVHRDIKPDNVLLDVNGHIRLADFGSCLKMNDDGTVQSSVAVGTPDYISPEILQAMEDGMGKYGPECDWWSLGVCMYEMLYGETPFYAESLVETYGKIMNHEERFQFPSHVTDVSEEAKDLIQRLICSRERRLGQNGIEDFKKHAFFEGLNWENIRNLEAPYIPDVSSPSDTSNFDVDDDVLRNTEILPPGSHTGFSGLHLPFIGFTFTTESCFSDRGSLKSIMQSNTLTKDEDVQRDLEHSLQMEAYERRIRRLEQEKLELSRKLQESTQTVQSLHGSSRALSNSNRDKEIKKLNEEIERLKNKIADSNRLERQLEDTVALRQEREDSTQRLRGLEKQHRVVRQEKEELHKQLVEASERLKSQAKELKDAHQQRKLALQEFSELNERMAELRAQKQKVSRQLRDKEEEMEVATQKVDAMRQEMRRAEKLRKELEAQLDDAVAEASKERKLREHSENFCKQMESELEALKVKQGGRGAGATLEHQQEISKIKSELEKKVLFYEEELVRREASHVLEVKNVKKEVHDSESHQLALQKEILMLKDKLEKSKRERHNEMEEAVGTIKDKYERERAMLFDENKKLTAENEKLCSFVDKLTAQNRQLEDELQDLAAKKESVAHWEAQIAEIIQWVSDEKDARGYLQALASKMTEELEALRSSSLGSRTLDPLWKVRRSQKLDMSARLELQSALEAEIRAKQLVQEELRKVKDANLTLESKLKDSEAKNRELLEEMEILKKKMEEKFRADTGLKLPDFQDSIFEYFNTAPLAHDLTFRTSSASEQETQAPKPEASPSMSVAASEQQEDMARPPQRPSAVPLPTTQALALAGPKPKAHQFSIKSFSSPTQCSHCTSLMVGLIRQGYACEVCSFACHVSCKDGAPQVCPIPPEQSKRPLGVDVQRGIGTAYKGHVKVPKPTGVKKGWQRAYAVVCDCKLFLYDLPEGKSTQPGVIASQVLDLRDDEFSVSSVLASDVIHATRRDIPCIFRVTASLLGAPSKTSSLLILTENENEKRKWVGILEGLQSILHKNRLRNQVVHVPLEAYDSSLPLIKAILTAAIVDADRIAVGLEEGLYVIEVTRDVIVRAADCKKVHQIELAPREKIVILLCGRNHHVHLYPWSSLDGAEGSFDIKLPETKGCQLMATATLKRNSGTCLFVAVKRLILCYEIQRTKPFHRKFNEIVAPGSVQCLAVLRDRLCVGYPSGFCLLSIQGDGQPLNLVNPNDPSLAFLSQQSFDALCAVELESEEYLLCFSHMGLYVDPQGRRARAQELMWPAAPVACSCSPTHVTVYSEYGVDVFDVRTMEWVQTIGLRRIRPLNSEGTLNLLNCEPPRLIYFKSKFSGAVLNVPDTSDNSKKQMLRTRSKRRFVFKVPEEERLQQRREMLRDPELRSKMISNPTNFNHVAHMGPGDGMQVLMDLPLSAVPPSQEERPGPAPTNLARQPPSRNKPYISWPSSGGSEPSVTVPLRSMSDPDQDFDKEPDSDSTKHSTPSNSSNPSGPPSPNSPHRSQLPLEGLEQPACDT
For experiment [5], the target named is Fibroblast growth factor receptor 1 (Homo sapiens) (UniProt P11362). As to the kind of experiment: Inhibition of T7 bacteriophage fused human FGFR1 at 10 uM by KINOMEscan analysis relative to control; values are per cent of control.
For experiment [6], the target named is Focal adhesion kinase 1 (Homo sapiens) (UniProt Q05397). As to the kind of experiment: Inhibition of T7 bacteriophage fused human FAK at 10 uM by KINOMEscan analysis relative to control; values are per cent of control.
Experiment [7] addresses Rho-associated protein kinase 1 (Homo sapiens) (UniProt Q13464). As to the kind of experiment: Inhibition of T7 bacteriophage fused human ROCK1 at 10 uM by KINOMEscan analysis relative to control.
Experiment [8] concerns the target Bone morphogenetic protein receptor type-2 (Homo sapiens) (UniProt Q13873). As to the kind of experiment: Inhibition of T7 bacteriophage fused human BMPR2 at 10 uM by KINOMEscan analysis relative to control.
Experiment [9] deals with Cyclin-dependent kinase-like 1 (Homo sapiens) (UniProt Q00532). As to the kind of experiment: Inhibition of T7 bacteriophage fused human CDKL1 at 10 uM by KINOMEscan analysis relative to control.
Chain of Cyclin-dependent kinase-like 1 (Homo sapiens) (Q00532 whole entry, the tested form may be a part): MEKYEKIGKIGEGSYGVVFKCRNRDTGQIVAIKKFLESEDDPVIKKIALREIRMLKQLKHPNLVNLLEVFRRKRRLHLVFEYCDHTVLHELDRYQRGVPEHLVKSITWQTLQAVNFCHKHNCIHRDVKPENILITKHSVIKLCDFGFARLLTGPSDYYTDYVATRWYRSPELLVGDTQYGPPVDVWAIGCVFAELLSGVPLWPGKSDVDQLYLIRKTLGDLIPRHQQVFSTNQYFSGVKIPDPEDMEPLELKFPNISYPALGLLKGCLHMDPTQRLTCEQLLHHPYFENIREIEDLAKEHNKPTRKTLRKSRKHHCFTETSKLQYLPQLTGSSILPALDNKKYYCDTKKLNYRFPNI
Experiment [10] deals with Serine/threonine-protein kinase B-raf (Homo sapiens), P15056 [V600E]. Kind of experiment: Inhibition of T7 bacteriophage fused human BRAF V600E mutant at 10 uM by KINOMEscan analysis relative to control.
For experiment [11], the target named is Tyrosine-protein kinase Fyn (Homo sapiens) (UniProt P06241). As to the kind of experiment: Inhibition of T7 bacteriophage fused human FYN at 10 uM by KINOMEscan analysis relative to control.
Chain of Tyrosine-protein kinase Fyn (Homo sapiens) (P06241 2-537 limits assumed): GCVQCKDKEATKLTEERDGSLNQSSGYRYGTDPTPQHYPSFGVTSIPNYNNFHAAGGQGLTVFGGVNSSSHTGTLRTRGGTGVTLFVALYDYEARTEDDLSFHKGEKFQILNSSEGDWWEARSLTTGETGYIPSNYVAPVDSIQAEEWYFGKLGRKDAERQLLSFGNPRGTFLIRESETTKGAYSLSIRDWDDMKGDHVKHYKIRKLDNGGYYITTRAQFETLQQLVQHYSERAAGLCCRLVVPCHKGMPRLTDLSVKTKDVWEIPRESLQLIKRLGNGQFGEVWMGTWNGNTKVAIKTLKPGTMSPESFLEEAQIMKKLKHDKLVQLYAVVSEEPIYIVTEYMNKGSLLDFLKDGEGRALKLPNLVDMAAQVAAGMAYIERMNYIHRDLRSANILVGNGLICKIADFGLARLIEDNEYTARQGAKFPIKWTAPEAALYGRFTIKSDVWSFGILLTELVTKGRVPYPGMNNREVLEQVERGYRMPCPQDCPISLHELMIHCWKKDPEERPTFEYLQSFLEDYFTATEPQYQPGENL
Experiment [12] addresses Casein kinase I isoform delta (Homo sapiens) (UniProt P48730). As to the kind of experiment: Inhibition of T7 bacteriophage fused human CSNK1D at 10 uM by KINOMEscan analysis relative to control; values are per cent of control.
For experiment [13], the target named is Serine/threonine-protein kinase Nek6 (Homo sapiens) (UniProt Q9HC98). As to the kind of experiment: Inhibition of T7 bacteriophage fused human NEK6 at 10 uM by KINOMEscan analysis relative to control.
For experiment [14], the target named is Tyrosine-protein kinase Mer (Homo sapiens) (UniProt Q12866). Kind of experiment: Inhibition of T7 bacteriophage fused human MERTK at 10 uM by KINOMEscan analysis relative to control.
The target in experiment [15] is Mitogen-activated protein kinase kinase kinase kinase 5 (Homo sapiens) (UniProt Q9Y4K4). As to the kind of experiment: Inhibition of T7 bacteriophage fused human MAP4K5 at 10 uM by KINOMEscan analysis relative to control.
Experiment [16] addresses Tyrosine-protein kinase Fgr (Homo sapiens) (UniProt P09769). Kind of experiment: Inhibition of T7 bacteriophage fused human FGR at 10 uM by KINOMEscan analysis relative to control; values are per cent of control.
Experiment [17] concerns the target Cyclin-dependent kinase 13 (Homo sapiens) (UniProt Q14004). As to the kind of experiment: Inhibition of T7 bacteriophage fused human CDC2L5 at 10 uM by KINOMEscan analysis relative to control.
Experiment [18] deals with Cyclin-dependent kinase 15 (Homo sapiens) (UniProt Q96Q40). Kind of experiment: Inhibition of T7 bacteriophage fused human PFTAIRE2 at 10 uM by KINOMEscan analysis relative to control.
The target in experiment [19] is Serine/threonine-protein kinase Nek3 (Homo sapiens) (UniProt P51956). As to the kind of experiment: Inhibition of T7 bacteriophage fused human NEK3 at 10 uM by KINOMEscan analysis relative to control.
For experiment [20], the system named is Tyrosine-protein kinase ABL1 (Homo sapiens), P00519 [T315I]. As to the kind of experiment: Inhibition of T7 bacteriophage fused human nonphosphorylated ABL1 T315I mutant at 10 uM by KINOMEscan analysis relative to control.
The target of experiment [21] is Tyrosine-protein kinase JAK3 (Homo sapiens) (UniProt P52333). Kind of experiment: Inhibition of T7 bacteriophage fused human JAK3 JH1catalytic domain at 10 uM by KINOMEscan analysis relative to control.
Experiment [22] concerns the target Insulin-like growth factor 1 receptor (Homo sapiens) (UniProt P08069). As to the kind of experiment: Inhibition of T7 bacteriophage fused human IGF1R at 10 uM by KINOMEscan analysis relative to control; values are per cent of control.
Experiment [23] concerns the target Serine/threonine-protein kinase Chk1 (Homo sapiens) (UniProt O14757). As to the kind of experiment: Inhibition of T7 bacteriophage fused human CHEK1 at 10 uM by KINOMEscan analysis relative to control.
Experiment [24] concerns the target Serine/threonine-protein kinase 36 (Homo sapiens) (UniProt Q9NRP7). As to the kind of experiment: Inhibition of T7 bacteriophage fused human STK36 at 10 uM by KINOMEscan analysis relative to control.
Experiment [25] addresses Ephrin type-A receptor 5 (Homo sapiens) (UniProt P54756). Kind of experiment: Inhibition of T7 bacteriophage fused human EPHA5 at 10 uM by KINOMEscan analysis relative to control; values are per cent of control.
The target in experiment [26] is Myosin-IIIb (Homo sapiens) (UniProt Q8WXR4). Kind of experiment: Inhibition of T7 bacteriophage fused human MYO3B at 10 uM by KINOMEscan analysis relative to control.
The target of experiment [27] is Tyrosine-protein kinase Lck (Homo sapiens) (UniProt P06239). As to the kind of experiment: Inhibition of T7 bacteriophage fused human LCK at 10 uM by KINOMEscan analysis relative to control.
The target of experiment [28] is Vascular endothelial growth factor receptor 3 (Homo sapiens) (UniProt P35916). As to the kind of experiment: Inhibition of T7 bacteriophage fused human FLT4 at 10 uM by KINOMEscan analysis relative to control.
Experiment [29] concerns the target Serine/threonine-protein kinase A-Raf (Homo sapiens) (UniProt P10398). Kind of experiment: Inhibition of ARAF Lys2 labeling site in human HEL cell lysate at 10 uM by KiNativ profiling analysis relative to control. It counts as subcellular.
The target in experiment [30] is Leucine-rich repeat serine/threonine-protein kinase 2 (Homo sapiens) (UniProt Q5S007). As to the kind of experiment: Inhibition of wildtype GFP-tagged LRRK2 phosphorylation at Ser910 residue (unknown origin) transfected in HEK293 cells upto 3 uM incubated for 90 mins by immunoblot analysis. The experiment is classed as cell-based. For orientation: Immunoblotting shows a protein as a band on a membrane.
Chain of Leucine-rich repeat serine/threonine-protein kinase 2 (Homo sapiens) (Q5S007 whole entry): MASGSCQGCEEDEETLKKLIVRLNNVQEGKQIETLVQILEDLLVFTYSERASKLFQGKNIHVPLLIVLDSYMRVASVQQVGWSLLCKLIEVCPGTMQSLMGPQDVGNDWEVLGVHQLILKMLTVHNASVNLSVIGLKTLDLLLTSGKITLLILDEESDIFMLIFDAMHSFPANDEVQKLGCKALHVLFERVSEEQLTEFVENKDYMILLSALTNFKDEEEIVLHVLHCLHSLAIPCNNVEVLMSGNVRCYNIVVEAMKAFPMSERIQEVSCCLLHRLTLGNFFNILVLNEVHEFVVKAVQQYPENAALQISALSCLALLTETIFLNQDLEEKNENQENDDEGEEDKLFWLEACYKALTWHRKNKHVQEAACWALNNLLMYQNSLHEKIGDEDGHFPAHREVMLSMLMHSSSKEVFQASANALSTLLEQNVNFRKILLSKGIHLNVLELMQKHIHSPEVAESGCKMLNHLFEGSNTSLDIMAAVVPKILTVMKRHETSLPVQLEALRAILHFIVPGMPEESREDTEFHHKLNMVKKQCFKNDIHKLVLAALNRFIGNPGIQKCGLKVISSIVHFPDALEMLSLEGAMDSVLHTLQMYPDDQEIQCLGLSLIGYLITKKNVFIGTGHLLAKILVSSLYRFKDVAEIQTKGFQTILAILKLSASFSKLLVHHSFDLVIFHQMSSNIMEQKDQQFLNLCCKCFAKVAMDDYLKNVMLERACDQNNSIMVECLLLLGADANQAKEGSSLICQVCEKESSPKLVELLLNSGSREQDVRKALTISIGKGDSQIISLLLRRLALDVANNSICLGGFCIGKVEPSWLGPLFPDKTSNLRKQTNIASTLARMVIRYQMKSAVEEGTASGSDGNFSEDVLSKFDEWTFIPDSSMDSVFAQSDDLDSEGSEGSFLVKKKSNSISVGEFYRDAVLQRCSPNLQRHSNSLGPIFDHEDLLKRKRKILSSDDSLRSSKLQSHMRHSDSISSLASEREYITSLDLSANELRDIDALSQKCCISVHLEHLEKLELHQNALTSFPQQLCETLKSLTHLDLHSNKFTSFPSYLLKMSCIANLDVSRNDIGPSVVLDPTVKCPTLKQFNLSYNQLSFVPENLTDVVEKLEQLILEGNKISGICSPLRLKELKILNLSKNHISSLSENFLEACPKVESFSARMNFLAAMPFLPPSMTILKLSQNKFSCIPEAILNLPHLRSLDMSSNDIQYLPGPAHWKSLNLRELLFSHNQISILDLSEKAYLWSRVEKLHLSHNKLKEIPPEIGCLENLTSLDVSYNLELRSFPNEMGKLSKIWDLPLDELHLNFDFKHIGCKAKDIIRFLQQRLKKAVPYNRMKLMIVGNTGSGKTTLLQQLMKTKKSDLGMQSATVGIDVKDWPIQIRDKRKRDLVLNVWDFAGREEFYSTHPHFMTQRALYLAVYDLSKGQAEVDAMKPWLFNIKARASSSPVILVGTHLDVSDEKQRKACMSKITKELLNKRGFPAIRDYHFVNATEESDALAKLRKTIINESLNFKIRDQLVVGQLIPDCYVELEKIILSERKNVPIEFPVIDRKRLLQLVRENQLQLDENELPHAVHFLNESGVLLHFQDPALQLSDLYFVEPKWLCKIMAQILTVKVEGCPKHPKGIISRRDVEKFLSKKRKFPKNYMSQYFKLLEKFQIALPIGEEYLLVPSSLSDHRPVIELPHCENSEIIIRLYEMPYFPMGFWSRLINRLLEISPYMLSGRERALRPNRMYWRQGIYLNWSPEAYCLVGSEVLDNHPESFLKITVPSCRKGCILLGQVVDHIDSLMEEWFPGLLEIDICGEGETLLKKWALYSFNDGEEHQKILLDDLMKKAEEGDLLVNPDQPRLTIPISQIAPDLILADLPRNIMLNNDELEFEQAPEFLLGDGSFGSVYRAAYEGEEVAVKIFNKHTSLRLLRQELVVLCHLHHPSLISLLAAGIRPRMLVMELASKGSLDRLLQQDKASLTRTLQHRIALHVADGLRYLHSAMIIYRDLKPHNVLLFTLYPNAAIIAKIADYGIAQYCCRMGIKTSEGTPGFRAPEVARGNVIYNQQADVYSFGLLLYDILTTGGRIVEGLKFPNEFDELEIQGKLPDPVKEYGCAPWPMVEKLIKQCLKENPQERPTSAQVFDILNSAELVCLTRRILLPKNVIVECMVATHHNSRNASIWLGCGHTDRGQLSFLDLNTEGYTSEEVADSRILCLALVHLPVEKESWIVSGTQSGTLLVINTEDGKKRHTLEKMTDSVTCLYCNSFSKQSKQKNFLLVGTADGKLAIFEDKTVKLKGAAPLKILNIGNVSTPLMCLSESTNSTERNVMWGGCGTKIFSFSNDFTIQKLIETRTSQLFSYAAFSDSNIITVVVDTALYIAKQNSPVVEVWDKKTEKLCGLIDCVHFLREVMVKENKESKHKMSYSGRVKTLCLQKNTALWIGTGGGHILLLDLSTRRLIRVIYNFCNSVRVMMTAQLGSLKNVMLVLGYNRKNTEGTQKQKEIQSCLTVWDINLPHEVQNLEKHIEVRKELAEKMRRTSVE

In general, inhibition refers to the change of the read-out against control, counted positive when it falls. With `COc1cc(N2CCC(N3CCN(C)CC3)CC2)ccc1Nc1ncc2c(n1)N(C)c1ccccc1C(=O)N2C`, the inhibition was 100% in experiment [1]; 100% in [4]; 100% in [7]; 100% in experiment [8]; 78% in experiment [9]; 100% in [10]. In addition, the inhibition in experiment [11] is 100%; in experiment [13], 76%; in experiment [14], 100%; in experiment [15], 100%; in experiment [17] it was 100%; in experiment [18] it was 100%. Besides, the inhibition in experiment [19] came to 100%; in experiment [20], 100%; in experiment [21], 100%; in [23] it was 100%; in experiment [24] it was 97%; in [26], 83%. The inhibition in experiment [27] and in [28] was 100% in each case. Besides, the residual activity in [2] turned out to be 87%; in [3], 94%; in experiment [5] it was 86%; in experiment [6], 34%; in [12], 81%; in [16], 84%. The results for the residual activity in experiment [22] and in experiment [25] were 96% and 95%, respectively.

As to `COc1cc(C(=O)N2CCC(N3CCN(C)CC3)CC2)ccc1Nc1ncc2c(n1)N(C1CCCC1)c1ccccc1C(=O)N2C`, the inhibition in experiment [29] was -0.7%.

Regarding `CCOc1cc(C(=O)N2CCC(N3CCN(C)CC3)CC2)ccc1Nc1ncc2c(n1)N(C1CCCC1)c1ccccc1C(=O)N2C`, in [30], the inhibition entry is “inactive”.
